Like-named read-outs stand apart in the source and are kept apart here.
Tests used:
[1] = Bioavailability after oral administration in human beings (free monomeric (+)-catechin in plasma, LC-MS/MS)
Method: (§1) With regard to taking the blood samples from the rats and from the human beings, the blood was collected in tubes internally coated with EDTA and was then centrifuged at 3000 rpm (revolutions per minute) at ambient temperature for 45 min, and then for 15 min at a temperature of 4° C. The plasma was then collected and stored at −70° C. before analysis.
(§2) The analytical technique (LC-MS/MS for Liquid Chromatography coupled to tandem Mass Spectrometry) for measuring the active substance in the blood was based on the method described by Mata-Bilbao et al., published in 2007 in the Journal of Agricultural and Food Chemistry, volume 55, page 8857.
(§3) The free (+)-catechin was extracted from the plasma with a solution of phosphoric acid, EDTA and ascorbic acid and was then purified by SPE (solid phase extraction); in particular, it is an Oasis™ HLB extraction which is analyzed by LC-MS/MS. The quantification was carried out according to a standard calibration procedure with (+/−)-catechin-2,3,4-^13C3 as internal standard (SI).
This complex salt is administered to a group A of 5 healthy volunteers.
This ct parameter makes it possible to calculate, from the data of table 1, the bioavailability of the (+)-catechin expressed in ng h/ml.

[2] = for Δct: vs CP
Method: The experimental results described below were obtained on the basis of a study carried out in healthy human beings and in healthy Wistar rats weighing approximately 250 grams.
An acclimation period was observed before beginning the experiments.
The rats received an administration per os of a volume of 5 ml of a solution of active product.
as §1, §2, §3
The procedure is identical with regard to the extraction and the quantification of free quercetin or ECGC in the blood.
With regard to the extraction and quantification of the total (+)-catechin, the procedure is the same as that applied to the free (+)-catechin, with the exception of the fact that an additional step prior to the purification by SPE is carried out.
(§4) Each of the mixtures is then solubilized in water.
Each of the mixtures is solubilized in water.

[3] = assay type: in vivo, Wistar rats; conditions: in a period of one hour following the injection
From the text: as §4

Solubility in water = assay type: physicochemical
collagen of rat skin = assay: Total incorporation and incorporation into collagen of 3H-proline in the skin; assay type: in vivo, Wistar rats; conditions: 100 mg/kg by gavage, vs control subgroup
Method: To do this, a study was carried out in vivo on a batch of 24 female Wistar rats weighing from 95 to 115 g, divided into two groups C and D, each of 12 rats. For each group, the radioactive 3H-hydroxyproline, the specific activity of which is 13.6 Ci/10-3 mol, was administered to all the animals by intraperitoneal injection of 3H-proline at a dose, relative to the weight of the individuals, of 1 mCi/kg, which represents an activity in terms of radioactive 3H-proline of 100 μCi/individual.
6 rats of each group received a treatment based on monomeric (+)-catechin by gavage in a proportion of 100 mg/kg for 5 days before sacrifice. […] The group C received monomeric (+)-catechin hydrochlorolysinate, while the group D received monomeric (+)-catechin ascorbolysinate.
In table 8, the level of incorporation is measured by the number of disintegrations of the radioactive 3H-hydroxyproline per minute (dpm) per mg of dry weight. The higher this number, the higher the concentration of 3H-hydroxyproline.
In this comparative example, a group E of 12 Wistar rats weighing from 95 to 115 g, in which radioactive 3H-hydroxyproline, the specific activity of which is 13.6 Ci/10-3 mol, was administered to all the individuals by intraperitoneal injection of 3H-proline at a dose, relative to the weight of the individuals, of 1 mCi/kg, which represents an activity in terms of radioactive 3H-proline of 100 μCi/individual.
6 rats of each group received a treatment based on pure monomeric (+)-catechin by gavage in a proportion of 100 mg/kg for 5 days before sacrifice.

[4] = free (+)-catechin, 1 g pure monomeric (+)-catechin, group B
[5] = free monomeric (+)-catechin in plasma
[6] = free (+)-catechin, rats, oral, dose equivalent to 25 mg/kg (+)-catechin, 3 Wistar rats
[7] = free (+)-catechin, rats, per os, dose equivalent to 25 mg/kg (+)-catechin, 5 Wistar rats, pulverulent mixture solubilized in water
[8] = total (+)-catechin (free and conjugated), rats, oral, dose equivalent to 25 mg/kg, 3 Wistar rats

Oc1cc(O)c2c(c1)O[C@H](c1ccc(O)c(O)c1)[C@@H](O)C2 [CP, (+)-catechin]
c (max) related back to 0.92 g of pure (+)-catechin [1]: 258 ng/mL | ct related back to 0.92 g of pure (+)-catechin ([1]; equivalent amount of 0.92 g pure (+)-catechin): 832 ± 150 ng·h/mL | ct related back to 0.920 g of pure (+)-catechin ([1]; equivalent amount of 0.920 g pure (+)-catechin): 49 920 ng min/ml | T (max) [1, 4]: 1.20 h | c (max) [1, 4]: 280 ng/mL | ct (total concentration, area under the curve over six hours) ([1]; free (+)-catechin, 1 g pure monomeric (+)-catechin, group B, listed as pure (+)-catechin): 904 ± 163 ng·h/mL | T (max) [1, 5]: 1.33 h | c (max) for 1 g of monomeric (+)-catechin ingested as it is [1, 5]: 280 ng | T (max) [2, 6]: 0.5 h | Δct [2, 6]: 0% | Δct (difference of ct to CP, related back to CP) ([2]; free (+)-catechin, rats, oral, dose equivalent to 100 mg/kg (+)-catechin): 0% | T (max) ([2]; free (+)-catechin, rats, oral, dose equivalent to 100 mg/kg (+)-catechin, 5 Wistar rats): 1 h | T (max) [2, 7]: 1 h | c (max) [2, 7]: 580 ng/mL | ct [2, 7]: 91 935 ng min/ml | Δct ([2]; free (+)-catechin, rats, per os, dose equivalent to 25 mg/kg, 5 Wistar rats): 0% | decrease of the peak content of free monomeric (+)-catechin in the blood ([2]; oral absorption, after two hours): 50% | T (max) [2, 8]: 0.5 h | c (max) [2, 8]: 2200 ng/mL | Δct ([2]; total (+)-catechin, rats, oral, dose equivalent to 25 mg/kg, 3 Wistar rats): 0% | content of free monomeric (+)-catechin eliminated from the blood [3]: ~90% | solubility in water compared with the complexed form (Solubility in water): 400 times lower | increase in the level of incorporation (collagen of rat skin): +16%
